Source: patent publication US20200369996A1, “Bioreactor Screening Platform for Modelling Human Systems Biology and for Screening for Inotropic Effects of Agents on the Heart” (NOVOHEART LIMITED, priority 2017, published 2020)
Where “and” joins values, the source holds several entries; their conditions need not be identical. Identical values can stand only once. Like-named read-outs stand apart in the source and are kept apart here.

Legend:
[1] = test system: human ventricular cardiac tissue strips (hvCTS); test: hvCTS drug screening: twitch force under electrical pacing; assay type: cell-based; conditions: for IC50 / EC50: Homo sapiens; for IC50: read-out: IC50, developed contractile force
Method: One of ordinary skill in the art will recognize that the gels can be formed in any of a variety of sizes and shapes, and the molds used to form such gels can also be formed in any of a variety of sizes and shapes, depending on the intended use of the molded gel. The molded mixtures were then bathed with culture medium (DMEM supplemented with 10% newborn calf serum), and maintained in culture with daily half-medium exchanges. Inserts in the casting molds were removed at 48 hours, yielding a self-assembled hvCTS held between 0.5-mm-diameter circular PDMS posts at each end. It is apparent that the posts can be formed from any flexible material amenable to at least one form of sterilization are suitable. As noted above, the whole mold can be scaled up or down depending on the application, and the posts can also be scaled up or down. In general, the height of the posts would be similar to the height of a well (e.g., about 6 mm in an exemplary embodiment). Any of a wide variety of cross-sectional shapes is contemplated as being suitable for use in the system, apparatus and methods according to the disclosure. At 7 days after hvCTS creation, the hvCTS were used for drug screening.
Initially, pharmacological compounds were prepared for screening. Compounds for unblinded “open label” screening were purchased from Sigma and stock solutions at the highest possible concentrations were prepared according to the product information. Working concentrations over a 5-logarithmic range were prepared for each drug.
Working concentrations over a 5-logarithmic range were prepared for each drug according to the dose-range recommendation provided by the supplier.
New born calf serum containing medium was replaced with DMEM high glucose with HEPES without phenol red for optical measurement of generated force in hvCTS. […] The integrated flexible PDMS posts were used as force sensors, with the post deflection captured in real-time with a high-speed camera (100 frames/s) and LabView software (National Instruments, Austin, Tex., USA), applying a beam-bending equation from elasticity theory to calculate twitch force, as described previously^[2] and incorporated herein by reference. These measurements were obtained with the hvCTS maintained in the original molds where they were created with the hvCTS bathed in culture medium at 37° C. For each drug, force generated in response to 9 doses were measured with the drugs added to the hvCTS at half log increments in a cumulative manner. For each dose, the force generated at 0 Hz, 0.5 Hz, 1 Hz, 1.5 Hz and 2 Hz electrical pacing with field electrodes were measured.
Data analysis. Data were calculated and analyzed by a customized MatLab program. Force frequency curves for each drug were generated by plotting the generated force at 0.5 Hz, 1 Hz, 1.5 Hz and 2 Hz at different concentrations. All forces were normalized to the generated force at 0.5 Hz at the drug-free baseline condition (100%).
[…] The force generated under drug-free baseline condition was defined as 100%. The force generated at each drug concentration was then normalized to the generated force under the cognate drug-free baseline condition. The EC50 of each tested drug was estimated by fitting to a four-parameter dose-response equation given as: Y=Bottom+(Top-Bottom)/(1+10^((Log EC^50^−X)*HillSlope)), using commercial software (GraphPad Software Inc.). X is the logarithm of drug concentrations; […]; Top and Bottom are the Y values of the top and bottom plateaus of the curve itself; Baseline is the Y value that defines 0%—maximal inhibition by a standard drug. Hill Slope quantifies the steepness of the dose-response curve (the higher the Hill Slope, the steeper the curve).

[2] = test system: isolated human atrial tissue; conditions: isolated human atrial tissue from cardiac bypass; ref [6]; cited from earlier work
[3] = cited from earlier work; for peak plasma concentration for improved ejection fraction and work product: ref [17]
[4] = test system: human atrial and ventricular cardiomyocytes; conditions: ref [8]; cited from earlier work
[5] = test system: chick embryonic ventricular cells; conditions: ref [9]; cited from earlier work
canine papillary muscle = conditions: ref [11]; cited from earlier work
human atrial trabeculae = conditions: ref [13]; cited from earlier work
rat atrial trabeculae = conditions: ref [14]; cited from earlier work
[6] = test system: human right atrial trabeculae; conditions: ref [21]; cited from earlier work
[7] = 1 Hz pacing, blinded screening, Example 4
[8] = Blinded, 1 Hz pacing, read-out: -log EC50 in hvCTS (converted)
[9] = Blinded, 1 Hz pacing, read-out: EC50 in hvCTS (in brackets)
[10] = 1 Hz pacing, unblinded screening, Example 3
[11] = Unblinded, 1 Hz pacing, read-out: -log EC50 in hvCTS (converted)
[12] = Unblinded, 1 Hz pacing, read-out: EC50 in hvCTS (in brackets)
[13] = 1 Hz pacing, blinded screening, Example 4, read-out: EC50, developed contractile force
[14] = 1 Hz pacing, unblinded screening, Example 3, read-out: EC50, developed contractile force

CN(C)CCC=C1c2ccccc2CCc2ccccc21 [Amitriptyline]
IC50 [1, 7]: 450 µM | EC50 [1, 8]: 447 µM | EC50 [1, 9]: 450 µM | 30-60% effective concentration [2]: 40-400 μM [6], 30-60% effective concentration | plasma concentration in psychiatric patients ([3]; ref [5]): 98-208 ng/mL and 0.35-0.74 μM

CC(=O)Oc1ccccc1C(=O)O [Aspirin]
effect on developed contractile force / contractility ([1]; blinded screening, Example 4): did not show any dose-dependent effect on contractility

CC(C)COCC(CN(Cc1ccccc1)c1ccccc1)N1CCCC1 (centres unmarked) [Bepridil]
relevant concentration [4]: 100 μM [8], human atrial and ventricular | IC50 [1, 10]: 3.3 µM | EC50 [1, 11]: 38 µM | EC50 [1, 12]: 37.9 µM

Cn1c(=O)c2c(ncn2C)n(C)c1=O [Caffeine]
relevant concentration [5]: 20 mM [9], in chick embryonic ventricular cells | EC50 [1, 13]: 0.29 µM | EC50 [1, 8]: 0.288 µM | EC50 [1, 9]: 0.287 µM

C[C@H]1O[C@@H](O[C@H]2[C@@H](O)C[C@H](O[C@H]3[C@@H](O)C[C@H](O[C@H]4CC[C@@]5(C)[C@H](CC[C@@H]6[C@@H]5C[C@@H](O)[C@]5(C)[C@@H](C7=CC(=O)OC7)CC[C@]65O)C4)O[C@@H]3C)O[C@@H]2C)C[C@H](O)[C@@H]1O [Digoxin]
EC50 ([1]; read-out: -log EC50 in hvCTS (converted)): 3.63 µM | EC50 ([1]; read-out: EC50, developed contractile force): 3.7 µM | EC50 ([1]; read-out: EC50 in hvCTS (in brackets)): 3.65 µM | relevant concentration, increased pre-ejection period index ([3]; ref [10]): 1 ng/ml (1 nM) ([10], increased pre-ejection

CC(C)N(CCC(C(N)=O)(c1ccccc1)c1ccccn1)C(C)C (centres unmarked) [Disopyramide]
EC50 [1, 14]: 80 µM | EC50 [1, 11]: 81.3 µM | EC50 [1, 12]: 82.2 µM | EC50 of developed tension (canine papillary muscle): 824 μg [11], EC50 of developed tension in canine

CC(CCc1ccc(O)cc1)NCCc1ccc(O)c(O)c1 (centres unmarked) [Dobutamine]
relevant concentration (human atrial trabeculae): 0.217 μM [13], human atrial trabeculae | EC50 [1, 13]: 0.25 µM | EC50 [1, 14]: 0.015 µM | EC50 [1, 8]: 0.245 µM | EC50 [1, 9]: 0.25 µM | EC50 [1, 11]: 0.0151 µM | EC50 [1, 12]: 0.015 µM | peak plasma concentration with increased cardiac output ([3]; ref [12]): 147-152 ng/ml and 0.487-0.5 μM

NCCc1ccc(O)c(O)c1 [Dopamine]
relevant concentration (rat atrial trabeculae): 20 μM [14], in rat atrial trabeculae | effect on developed contractile force / contractility ([1]; blinded screening, Example 4): did not significantly affect the developed contractile force

O=C(NCC1CCCCN1)c1cc(OCC(F)(F)F)ccc1OCC(F)(F)F (centres unmarked) [Flecainide]
IC50 [1, 7]: 15 µM | EC50 [1, 14]: 75 µM | EC50 [1, 8]: 15.1 µM | EC50 [1, 9]: 151 µM | EC50 [1, 11]: 75.9 µM | EC50 [1, 12]: 75 µM

COc1ccc(Cl)cc1C(=O)NCCc1ccc(S(=O)(=O)NC(=O)NC2CCCCC2)cc1 [Glibenclamide]
EC50 [1, 13]: 3.2 µM | EC50 [1, 14]: 0.93 µM | EC50 [1, 8]: 3.16 µM | EC50 [1, 9]: 3.17 µM | EC50 [1, 11]: 0.933 µM | EC50 [1, 12]: 0.93 µM | peak plasma concentration for improved ejection fraction and work product ([3]; after 5 mg oral administration): 479 ng/ml and 0.096 μM

C[C@@H]1CC(=O)NN=C1c1ccc(NN=C(C#N)C#N)cc1 [Levosimendan]
relevant concentration (human atrial trabeculae): 0.19 μM [13], human atrial trabeculae | EC50 [1, 14]: 0.15 µM | EC50 [1, 11]: 0.145 µM | EC50 [1, 12]: 0.15 µM

NCCCC[C@H](N[C@@H](CCc1ccccc1)C(=O)O)C(=O)N1CCC[C@H]1C(=O)O [Lisinopril]
effect on developed contractile force / contractility ([1]; blinded screening, Example 4): small increase in developed contractile force with increasing concentrations

COCC(=O)O[C@]1(CCN(C)CCCc2nc3ccccc3[nH]2)CCc2cc(F)ccc2[C@@H]1C(C)C [Mibefradil]
IC50 [6]: 24.5 µM | IC50 [1, 10]: 38 µM | EC50 [1, 11]: 3.16 µM | EC50 [1, 12]: 3.39 µM

Cc1[nH]c(=O)c(C#N)cc1-c1ccncc1 [Milrinone]
EC50 [1, 13]: 2.8 µM | EC50 [1, 14]: 0.41 µM | EC50 [1, 8]: 2.75 µM | EC50 [1, 9]: 2.77 µM | EC50 [1, 11]: 0.407 µM | EC50 [1, 12]: 0.41 µM

COC(=O)C1=C(C)NC(C)=C(C(=O)OC)C1c1ccccc1[N+](=O)[O-] [Nifedipine]
plasma concentration in patients with ischemic heart disease ([3]; ref [23]): 29-73 ng/ml and 0.083-0.21 μM

NC[C@H](O)c1ccc(O)c(O)c1 [Norepinephrine]
EC50 [1, 13]: 0.35 µM | EC50 [1, 8]: 0.347 µM | EC50 [1, 9]: 0.35 µM | plasma level after epinephrine infusion ([3]; ref [24]): 267 pg/ml and 0.15 nM

CCN(CC)CCNC(=O)c1ccc(N)cc1 [Procainamide]
EC50 of developed tension (canine papillary muscle): 7952 μg [11], EC50 of developed tension in canine

C=C[C@H]1C[N@@]2CC[C@H]1C[C@@H]2[C@@H](O)c1ccnc2ccc(OC)cc12 [Quinidine]
IC50 [1, 7]: 200 µM | EC50 [1, 8]: 204 µM | EC50 [1, 9]: 200 µM | peak plasma concentration ([3]; at 495 mg, ref [26]): 2.07 μg/ml and 6.3 μM

CCOC(=O)[C@H](CCc1ccccc1)N[C@@H](C)C(=O)N1[C@H](C(=O)O)C[C@@H]2CCC[C@@H]21 [Ramipril]
effect on developed contractile force / contractility ([1]; blinded screening, Example 4): did not show any dose-dependent effect on contractility

Cc1cccc(C)c1NC(=O)C(C)N (centres unmarked) [Tocainide]
effect on developed contractile force ([1]; all concentrations and pacing frequencies, unblinded screening, Example 3): did not show any effect on developed contractile force | effect on developed contractile force ([1]; all tested pacing frequencies, Example 2 / FIG. 2): no dose-dependent effect on contractile force | effect on developed contractile force ([1]; all tested pacing frequencies, Example 2 / FIG. 2, listed as tocainide): No consistent change in developed contractile force | EC50 of developed tension (canine papillary muscle): 1212 μg [11], EC50 of developed tension in canine

CCCCNC(=O)NS(=O)(=O)c1ccc(C)cc1 [Tolbutamide]
effect on developed contractile force / contractility ([1]; blinded screening, Example 4): did not show any dose-dependent effect on contractility | peak plasma concentration for improved ejection fraction and work product ([3]; after 1250 mg oral administration): 63.5 μg/ml and 230 μM
